Where two headings read alike, the source gives them in different places.

For assay [1], the target named is mutant Wza Y110G (Escherichia coli, UniProt Q9X4B7, Y110G). The assay is described as follows: Single-channel electrical recording, mutant Wza Y110G. Particulars: n = 3, read-out: Dissociation constant (Kd) with mutant Wza pore. In kind it is binding, E. coli. As to the method: Thirteen commercial cyclodextrins (CDs) were tested for their ability to block WT-Wza and the mutant Y110G/K375C (Table 1) including, neutral, negatively charged or positively charged cyclodextrins. […]

Assay [2] deals with E. coli strain E69. The assay is described as follows: LPS exposure assay, O9a LPS to O9a LPS-specific antibodies (FACS). In kind it is cell-based. The protocol: The direct effect of the inhibition of K30 CPS transport on E. coli strain E69 is the appearance of defects in the capsule layer. This should in turn lead to exposure of O9a LPS at the cell surface. To test this hypothesis, the attachment of rabbit anti-O9a antibodies was quantified by flow cytometry (FACS), by using secondary fluorescent anti-rabbit antibodies. The design of the experiment is depicted schematically in FIG. 4a.
E. coli strains E69 and CWG281 were grown as described above in Example 4 and the OD600 was adjusted to 0.4. The concentrations of cyclodextrin (either am8γCD (compound 13), am6αCD (compound 3) or am7βCD (compound 10)) present in the growth media were 10 nM, 100 nM, 1 μM, 10 μM, 50 μM, 100 μM and 1 mM. 50 μL samples of each were centrifuged at 3,000×g for 10 min to remove the medium, washed with PBS and resuspended in 50 μL PBS. O9a antiserum (0.5 μL) was then added. The mixtures were incubated on ice for 1 h (to compare the effects of am6αCD, am7βCD and am8γCD on the exposure of LPS) or 2 h (for the estimation of minimum effective concentration of am8γCD required to expose LPS to antibodies), followed by centrifugation at 3,000×g for 10 min and washing with PBS. The pellets were resuspended in PBS (50 μL), to which Alexa Fluor 488 Goat Anti-Rabbit IgG secondary antibody (1 μL, Life Technologies, A11034, λex 495 nm, λem 519 nm) was added, followed by incubation for 1 h on ice. The cells were then centrifuged at 3,000×g for 10 min. The pellets were resuspended in PBS (1 mL), followed by analysis by flow cytometry (FACS) using a Becton-Dickinson FACSCalibur. 10,000 cells were analysed for each sample. Fluorescence was measured in the FL1 channel (530 nm).

Assay [3] deals with E. coli strain E69. The assay is described as follows: Complement-mediated killing of bacteria in human serum. The conditions noted are these: for Complement-mediated killing of E69: 40% normal human serum, 1 h, 37° C. In kind it is cell-based. The protocol: This assay measured the killing of bacteria by the compounds of the invention mediated by the human complement system found in serum (incubation time 1 h, RPMI 1640, 37° C.). 10^3 cells of E. coli strain E69 or CWG281 were cultured in 40% (v/v) normal human serum (NHS, 1 mL, TCS Biosciences, CR100) or deactivated human serum (DHS) in RPMI 1640 medium (Sigma Aldrich, R8758) in 1.5 mL tubes in the presence of different concentrations of am8γCD (compound 13) at 37° C. for 1 h or 4 h. DHS was generated by heating NHS at 56° C. for 30 min. For the one-hour experiment, a portion of each culture (50 μL) was then spread onto a freshly prepared LB-Agar plate; for the four-hour experiment, the culture was firstly diluted 100 times (0, 1, 10, 40 μM), 10 times (100 μM) or not diluted (300 μM and 1 mM), and then a portion of each resulting culture (50 μL) was then spread onto a freshly prepared LB-Agar plate. The plates were incubated at 37° C. for 10 h after which colonies were counted. The total colonies of each sample were calculated by colonies/plate multiplying by times of dilution. P values were calculated from a one-tailed Student's t-test.

In the case of `NC[C@H]1O[C@@H]2O[C@H]3[C@H](O)[C@@H](O)[C@@H](O[C@H]4[C@H](O)[C@@H](O)[C@@H](O[C@H]5[C@H](O)[C@@H](O)[C@@H](O[C@H]6[C@H](O)[C@@H](O)[C@@H](O[C@H]7[C@H](O)[C@@H](O)[C@@H](O[C@H]8[C@H](O)[C@@H](O)[C@@H](O[C@H]9[C@H](O)[C@@H](O)[C@@H](O[C@H]1[C@H](O)[C@H]2O)O[C@@H]9CN)O[C@@H]8CN)O[C@@H]7CN)O[C@@H]6CN)O[C@@H]5CN)O[C@@H]4CN)O[C@@H]3CN` [No. 12, Octacis (6-amino-6-deoxy)-γ-cyclodextrin], the Kd came out at 0.0056 ± 0.0024 µM in assay [1] (300 mM KCl, 5 mM HEPES, pH 7.5, +10 mV) and 4.7 ± 4.6 µM in assay [1] (2M KCl buffer pH 7.5, +3 mV). Also, the “LPS exposure by median fluorescence intensity” value in assay [2] (1 μM, antiserum incubation 2 h) was determined as 5.1%; in assay [2] (50 μM, antiserum incubation 1 h, relative to CWG281 positive control), 4.9%; in assay [2] (1 mM, antiserum incubation 1 h, relative to CWG281 positive control) it was 20%. Also, the “LPS exposure by percentage of labelled cells” value came to 44% in assay [2] (1 μM, antiserum incubation 2 h); 36% in assay [2] (50 μM, antiserum incubation 1 h); 96% in assay [2] (1 mM, antiserum incubation 1 h). The “Complement-mediated killing of E69” value in assay [3] (15 μM) amounted to 21%; in assay [3] (100 μM), 51%; in assay [3] (1 mM), 84%. In assay [3] (1 mM, normal human serum, incubation 4 h), the “Growth of E69” value is listed as “completely inhibited the growth”. For the same molecule, the EC50 in assay [3] (Escherichia coli, E69, normal human serum, incubation 4 h, n=3, read-out: Concentration required to kill half of the bacteria (EC50)) stood at 3.2 ± 0.5 µM. Moreover, in assay [3] (compound alone at 100 μM or 1 mM, no normal human serum), the “Effect on survival of E69 in the absence of NHS” value was “no significant effect”.

As a reminder, the Kd is the constant that tells how readily two partners part at equilibrium.

These data come from patent US9963518B2, “Cyclic oligosaccharides for use in the treatment and prevention of bacterial infection” (priority 2011, dated 2018).
